Data: patent US8501959B2, “Cycloalkane[B]indole antagonists of prostaglandin D2 receptors” (Panmira Pharmaceuticals, LLC, priority 2008, dated 2013)

Assays:
human DP1 receptor = target: T1, human DP1 receptor (Homo sapiens, UniProt Q13258); assay: DP1 binding assay (radioligand [3H]BWA868C); conditions: [3H]BWA868C binding, human platelet membranes; read-out: hDP1
T1 construct: tissue Biological Specialty Corporation; host or cells: human platelets, membrane preparation
T1 sequence (Q13258 1-359): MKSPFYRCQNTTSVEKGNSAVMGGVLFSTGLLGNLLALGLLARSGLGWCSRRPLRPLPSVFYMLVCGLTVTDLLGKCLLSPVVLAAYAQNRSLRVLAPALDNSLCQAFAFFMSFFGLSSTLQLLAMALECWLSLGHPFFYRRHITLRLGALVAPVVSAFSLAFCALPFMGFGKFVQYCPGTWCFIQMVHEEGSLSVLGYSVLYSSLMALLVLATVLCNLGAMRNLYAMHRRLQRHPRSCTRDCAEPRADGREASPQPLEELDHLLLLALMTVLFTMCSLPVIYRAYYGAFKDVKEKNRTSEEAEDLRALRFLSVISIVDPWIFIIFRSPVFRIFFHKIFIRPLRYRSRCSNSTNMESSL
Description: The ability of a compound to bind to the human DP1 receptor was evaluated via a radioligand membrane binding assay using the DP1 selective synthetic ligand [^3H]BWA868C. Packed human platelets (Biological Specialty Corporation), were resuspended in 6 volumes of Hepes/HBSS buffer (10 mM Hepes, 1 mM DTT in Hanks Balanced Salt Solution (HBSS), lysed and centrifuged at 75,000×g to pellet the membranes. Membranes were resuspended in Hepes/HBSS buffer to approximately 12 mg protein/ml. Membranes (20 μg protein/well) are incubated in 96-well plates with 2 nM [^3H]BWA868C and test compound in Assay Buffer (50 mM Hepes, 10 mM MnCl2, 1 mM EDTA, plus or minus 0.2% human serum albumin, pH 7.4) for 60 minutes at room temperature. The reactions are terminated by rapid filtration through Whatman GF/C glass fibre filter plates. The filter plates were pre-soaked in 0.33% polethylenimine for 30 minutes at room temperature then washed in Wash Buffer (50 mM Hepes, 0.5 M NaCl pH 7.4) prior to harvesting. After harvesting, the filter plates are washed 3 times with 1 ml cold Wash Buffer then dried. Scintillant is then added to the plates and the radioactivity retained on the filters is determined on a Packard TopCount (Perkin Elmer). Specific binding is determined as total radioactive binding minus non-specific binding in the presence of 10 μM BW A868C. IC50s were determined using GraphPad prism analysis of drug titration curves.

human DP2 receptor = target: T2, human DP2 receptor (Homo sapiens, UniProt Q9Y5Y4); assay: DP2/CRTH2 binding assay (radioligand [3H]PGD2); conditions: [3H]PGD2 binding, membranes of HEK293 cells expressing recombinant human DP2; read-out: hDP2
T2 construct: expressed in transfected cells
T2 sequence (Q9Y5Y4 1-395): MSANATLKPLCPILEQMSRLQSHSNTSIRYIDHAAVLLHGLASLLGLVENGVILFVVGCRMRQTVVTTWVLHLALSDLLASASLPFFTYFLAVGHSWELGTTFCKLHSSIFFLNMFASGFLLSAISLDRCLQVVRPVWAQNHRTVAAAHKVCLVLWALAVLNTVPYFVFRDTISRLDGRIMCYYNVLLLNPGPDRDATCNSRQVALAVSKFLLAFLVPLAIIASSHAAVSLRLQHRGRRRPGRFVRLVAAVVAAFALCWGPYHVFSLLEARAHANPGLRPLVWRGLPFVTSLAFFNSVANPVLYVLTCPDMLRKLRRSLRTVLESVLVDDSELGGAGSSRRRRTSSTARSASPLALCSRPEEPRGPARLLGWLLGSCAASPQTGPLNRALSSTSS
Description: The ability of a compound to bind to the human DP2 receptor is assessed via a radioligand binding assay using [^3H]PGD2. HEK293 cells stably expressing recombinant human DP2 are resuspended in 10 mM Hepes, 7.4 containing 1 mM DTT, lysed and centrifuged at 75,000×g to pellet the membranes. The membranes are resuspended in 10 mM Hepes, 7.4 containing 1 mM DTT and 10% glycerol to approximately 5 mg protein/ml. Membranes (2-10 μg protein/well) are incubated in 96-well plates with 1 nM [^3H]PGD2 and test compound in Assay Buffer (50 mM Hepes, 10 mM MnCl2, 1 mM EDTA, plus or minus 0.2% human serum albumin, pH 7.4) for 60 minutes at room temperature. The reactions are terminated by rapid filtration through Whatman GF/C glass fibre filter plates. The filter plates were pre-soaked in 0.33% polythylenimine for 30 minutes at room temperature then washed in Wash Buffer (50 mM Hepes, 0.5 M NaCl pH 7.4) prior to harvesting. After harvesting, the filter plates are washed 3 times with 1 ml cold Wash Buffer then dried. Scintillant is then added to the plates and the radioactivity retained on the filters is determined on a Packard TopCount (Perkin Elmer). Specific binding is determined as total radioactive binding minus non-specific binding in the presence of 10 μM PGD2. IC50s were determined using GraphPad prism analysis of drug titration curves.

Row | IC50 (human DP1 receptor) [nM] | IC50 (human DP2 receptor) [nM] | SMILES
1 | > 1000 | > 300 | O=C(O)CCn1c2c(c3ccccc31)C[C@H](NS(=O)(=O)c1ccc(F)cc1)CC2 [Ramatroban, reference compound]
2 | > 1000 | > 1000 | CC(C)(O)CCn1c2c(c3ccccc31)CC(N(CC(C)(C)O)S(=O)(=O)c1ccc(F)cc1)CC2 (centres unmarked) [Compound 1-4, 4-FluoroN-[9-(3-hydroxy-3-methyl-butyl)-2,3,4,9-tetrahydro-1H-carbazol-3-yl]-N-(2-hydroxy-2-methyl-propyl)-benzenesulfonamide]
3 | > 1000 | > 1000 | CC(C)(O)CN(C1CCc2c(c3ccccc3n2CCC(=O)O)C1)S(=O)(=O)c1ccc(F)cc1 (centres unmarked) [Compound 1-3, 3-{3-[(4-Fluoro-benzenesulfonyl)-(2-hydroxy-2-methyl-propyl)-amino]-1,2,3,4-tetrahydro-carbazol-9-yl}-propionic acid]
4 | > 1000 | > 1000 | NC(=O)CN(C1CCc2c(c3ccccc3n2CCC(=O)O)C1)S(=O)(=O)c1ccc(F)cc1 (centres unmarked) [Compound 1-5, 3-{3-[Carbamoylmethyl-(4-fluoro-benzenesulfonyl)-amino]-1,2,3,4-tetrahydro-carbazol-9-yl}-propionic acid]
5 | > 1000 | > 1000 | O=C(O)CCn1c2c(c3ccccc31)CC(N(CC(=O)O)S(=O)(=O)c1ccc(F)cc1)CC2 (centres unmarked) [Compound 1-6, 3-{3-[Carboxymethyl-(4-fluoro-benzenesulfonyl)-amino]-1,2,3,4-tetrahydro-carbazol-9-yl}-propionic acid]
6 | > 1000 | < 300 | O=C(O)CN(C1CCc2c(c3ccccc3n2CC(=O)O)C1)S(=O)(=O)c1ccc(F)cc1 (centres unmarked) [Compound 1-1, {3-[Carboxymethyl-(4-fluoro-benzenesulfonyl)-amino]-1,2,3,4-tetrahydro-carbazol-9-yl}-acetic acid]
7 | > 1000 | > 1000 | CC(C)(O)CCn1c2c(c3ccccc31)CC(N(CC(=O)O)S(=O)(=O)c1ccc(F)cc1)CC2 (centres unmarked) [Compound 1-2, {(4-Fluoro-benzenesulfonyl)-[9-(3-hydroxy-3-methyl-butyl)-2,3,4,9-tetrahydro-1H-carbazol-3-yl]-amino}-acetic acid]
